Data on two compounds can be found in US12077503B2, “Substituted cyclic amides and their use as herbicides” (FMC CORPORATION, priority 2015, dated 2024).

Where two headings read alike, the source gives them in different places.

What all share (assay type): in vivo
Test [1] relates to pigweed (Amaranthus retroflexus). In words: Test A preemergence. The note with it: Amaranthus retroflexus, pre-emergence, 240 h; for pest or weed control at 125 g/ha: 125 g ai/ha; for pest or weed control at 500 g/ha: 500 g ai/ha.
In test [2] the test system is Galium (catchweed bedstraw, Galium aparine). The test can be described thus: Test A postemergence. The following applies: Galium, post-emergence, 240 h, postemergence; for pest or weed control at 125 g/ha: 125 g ai/ha. The gist of the method:
(§1)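 Seeded soil received test chemicals as a preemergence directed spray, and seedlings at one to two leaves, 2–10 cm tall, received them postemergence, in a non-phytotoxic, surfactant-containing solvent mixture. Pots were held in a greenhouse for approximately 10 d, then rated for injury from 0, no effect, to 100, complete control.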

Another test concerns Kochia (Kochia scoparia). The test can be described thus: Test A postemergence. The note with it: Bassia scoparia, post-emergence, 240 h, postemergence; for pest or weed control at 125 g/ha: 125 g ai/ha. The gist of the method:
as §1

Test [3] concerns barnyardgrass (Echinochloa crus-galli). In words: Test A postemergence. The following applies: Echinochloa crus-galli, post-emergence, 240 h, postemergence; for pest or weed control at 125 g/ha: 125 g ai/ha. The gist of the method: as §1
In test [4] the test system is blackgrass (Alopecurus myosuroides). The test can be described thus: Test A postemergence. The note with it: Alopecurus myosuroides, post-emergence, 240 h, postemergence; for pest or weed control at 125 g/ha: 125 g ai/ha. In short, it runs like this: as §1
The next test deals with corn (Zea mays). In words: Test A postemergence. The note with it: Zea mays, post-emergence, 240 h, postemergence; for plant injury at 125 g/ha: 125 g ai/ha. In short, it runs like this:
as §1

Test [5] relates to giant foxtail (Setaria faberii). In words: Test A postemergence. The following applies: Setaria faberi, post-emergence, 240 h, postemergence; for pest or weed control at 125 g/ha: 125 g ai/ha. The gist of the method: as §1
Test [6] concerns pigweed (Amaranthus retroflexus). The test can be described thus: Test A postemergence. The note with it: Amaranthus retroflexus, post-emergence, 240 h, postemergence; for pest or weed control at 125 g/ha: 125 g ai/ha. The gist of the method: as §1
Test [7] deals with ragweed (common ragweed, Ambrosia elatior). The test can be described thus: Test A postemergence. The following applies: Ambrosia artemisiifolia, post-emergence, 240 h, postemergence; for pest or weed control at 125 g/ha: 125 g ai/ha. In short, it runs like this: as §1
In test [8] the test system is ryegrass, Italian (Italian ryegrass, Lolium multiflorum). The test can be described thus: Test A postemergence. The following applies: Lolium multiflorum, post-emergence, 240 h, postemergence; for pest or weed control at 125 g/ha: 125 g ai/ha. In short, it runs like this:
as §1

The subject of test [9] is wheat (Triticum aestivum). In words: Test A postemergence. The note with it: Triticum aestivum, post-emergence, 240 h, postemergence; for plant injury at 125 g/ha: 125 g ai/ha. The gist of the method:
as §1

In test [10] the test system is barnyardgrass (Echinochloa crus-galli). In words: Test B flooded paddy test. The following applies: Echinochloa crus-galli, 250 g ai/ha, Flood, read-out: Barnyardgrass plant response rating. In short, it runs like this: (§2)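 Flooding to 3 cm over soil accompanied treatment, which consisted of adding compound to the standing water around 2-leaf plants; depth was then maintained. Visual assessment versus controls followed at 13 to 15 d (scale 0–100, 0 meaning no effect).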

Test [11] has as its system ducksalad (Heteranthera limosa). In words: Test B flooded paddy test. The following applies: Heteranthera limosa, 250 g ai/ha, Flood, read-out: Ducksalad plant response rating. In short, it runs like this:
as §2

The subject of the next test is rice (Oryra sativa). The test can be described thus: Test B flooded paddy test. The note with it: Oryza sativa, 250 g ai/ha, Flood, read-out: Rice plant response rating. The gist of the method:
as §2

Test [12] deals with sedge, umbrella (small-flower umbrella sedge, Cyperus difformis). The test can be described thus: Test B flooded paddy test. The note with it: Cyperus difformis, 250 g ai/ha, Flood, read-out: Sedge, Umbrella plant response rating. The gist of the method: as §2
Setting [13] is: preemergence, 0 to 100 scale where 0 is no effect and 100 is complete control, read-out: Pigweed plant response rating.
The mark [14] stands for this setting: 0 to 100 scale where 0 is no effect and 100 is complete control.
Where [15] appears, read: scale of 0 to 100 where 0 is no effect and 100 is complete control.

For the compound `O=C1NC[C@H](c2cccc(I)c2)[C@H]1C(=O)Nc1ccccc1F` [Compound 1160], the pest or weed control at 125 g/ha came to 0% in [1] (preemergence, 0 to 100 scale where 0 is no effect and 100 is complete control, approx. 10 d, read-out: Pigweed plant response rating); 0% in [2] (visual injury vs untreated controls after approx. 10 d, 0 = no effect, 100 = complete control, read-out: Galium plant response rating (0 to 100 scale)); 0% in the test with Kochia (Kochia scoparia) (visual injury vs untreated controls after approx. 10 d, 0 = no effect, 100 = complete control, read-out: Kochia plant response rating (0 to 100 scale)); 80% in [3] (visual injury vs untreated controls after approx. 10 d, 0 = no effect, 100 = complete control, read-out: Barnyardgrass plant response rating (0 to 100 scale)); 0% in test [4] (visual injury vs untreated controls after approx. 10 d, 0 = no effect, 100 = complete control, read-out: Blackgrass plant response rating (0 to 100 scale)); 80% in test [5] (visual injury vs untreated controls after approx. 10 d, 0 = no effect, 100 = complete control, read-out: Foxtail, Giant plant response rating (0 to 100 scale)). For the same compound, the pest or weed control at 125 g/ha in test [6] (visual injury vs untreated controls after approx. 10 d, 0 = no effect, 100 = complete control, read-out: Pigweed plant response rating (0 to 100 scale)) was 0%; in test [7] (visual injury vs untreated controls after approx. 10 d, 0 = no effect, 100 = complete control, read-out: Ragweed plant response rating (0 to 100 scale)), 0%; in test [8] (visual injury vs untreated controls after approx. 10 d, 0 = no effect, 100 = complete control, read-out: Ryegrass, Italian plant response rating (0 to 100 scale)), 20%. For the same compound, the pest or weed control at 500 g/ha came to 20% in [1] (setting [13]); 60% in test [2] (500 g ai/ha, 0 to 100 scale, 0 is no effect, 100 is complete control, read-out: Galium plant response rating); 20% in the test on Kochia (Kochia scoparia) (500 g ai/ha, 0 to 100 scale, 0 is no effect, 100 is complete control, read-out: Kochia plant response rating); 90% in test [3] (500 g ai/ha, 0 to 100 scale, 0 is no effect, 100 is complete control, read-out: Barnyardgrass plant response rating); 50% in test [4] (500 g ai/ha, 0 to 100 scale, 0 is no effect, 100 is complete control, read-out: Blackgrass plant response rating); 90% in test [5] (500 g ai/ha, 0 to 100 scale, 0 is no effect, 100 is complete control, read-out: Foxtail, Giant plant response rating). For the same compound, the pest or weed control at 500 g/ha in test [6] (500 g ai/ha, 0 to 100 scale, 0 is no effect, 100 is complete control, read-out: Pigweed plant response rating) was found to be 0%; in [7] (500 g ai/ha, 0 to 100 scale, 0 is no effect, 100 is complete control, read-out: Ragweed plant response rating), 0%; in [8] (500 g ai/ha, 0 to 100 scale, 0 is no effect, 100 is complete control, read-out: Ryegrass, Italian plant response rating), 20%. Besides, the plant injury at 125 g/ha in the test with corn (Zea mays) (visual injury vs untreated controls after approx. 10 d, 0 = no effect, 100 = complete control, read-out: Corn plant response rating (0 to 100 scale)) amounted to 40%; in [9] (visual injury vs untreated controls after approx. 10 d, 0 = no effect, 100 = complete control, read-out: Wheat plant response rating (0 to 100 scale)), 20%. The plant injury at 500 g/ha was determined as 80% in the test with corn (Zea mays) (500 g ai/ha, 0 to 100 scale, 0 is no effect, 100 is complete control, read-out: Corn plant response rating) and 50% in [9] (500 g ai/ha, 0 to 100 scale, 0 is no effect, 100 is complete control, read-out: Wheat plant response rating). Besides, the pest or weed control at 250 g/ha in test [10] (setting [14]) stood at 0%; in test [11] (setting [14]), 80%; in the test with rice (Oryra sativa) (setting [14]) it was 20%; in test [12] (setting [14]), 0%.
Consider `CC(C)(C)c1ccc([C@H]2CNC(=O)[C@@H]2C(=O)Nc2cccc(F)c2F)cc1` [Compound 847], for which the pest or weed control at 125 g/ha in [1] (setting [13]) amounted to 0%; in test [2] (visual injury rating after approximately 10 d, read-out: Galium plant response rating (0 to 100 scale, 0 no effect, 100 complete control)) it was 0%; in the test with Kochia (Kochia scoparia) (visual injury rating after approximately 10 d, read-out: Kochia plant response rating (0 to 100 scale, 0 no effect, 100 complete control)), 0%; in test [3] (visual injury rating after approximately 10 d, read-out: Barnyardgrass plant response rating (0 to 100 scale, 0 no effect, 100 complete control)), 0%; in test [4] (visual injury rating after approximately 10 d, read-out: Blackgrass plant response rating (0 to 100 scale, 0 no effect, 100 complete control)), 0%; in test [5] (visual injury rating after approximately 10 d, read-out: Foxtail, Giant plant response rating (0 to 100 scale, 0 no effect, 100 complete control)), 0%. Besides, the pest or weed control at 125 g/ha in test [6] (visual injury rating after approximately 10 d, read-out: Pigweed plant response rating (0 to 100 scale, 0 no effect, 100 complete control)) came out at 0%; in [7] (visual injury rating after approximately 10 d, read-out: Ragweed plant response rating (0 to 100 scale, 0 no effect, 100 complete control)) it was 0%; in [8] (visual injury rating after approximately 10 d, read-out: Ryegrass, Italian plant response rating (0 to 100 scale, 0 no effect, 100 complete control)), 0%. In addition, the pest or weed control at 500 g/ha in test [1] (Preemergence, visual injury vs untreated controls after approximately 10 d, read-out: Pigweed plant response rating (0 to 100 scale where 0 is no effect and 100 is complete control)) worked out at 0%. Moreover, the plant injury at 125 g/ha in the test on corn (Zea mays) (visual injury rating after approximately 10 d, read-out: Corn plant response rating (0 to 100 scale, 0 no effect, 100 complete control)) was 0%; in test [9] (visual injury rating after approximately 10 d, read-out: Wheat plant response rating (0 to 100 scale, 0 no effect, 100 complete control)), 0%. In addition, the pest or weed control at 250 g/ha amounted to 0% in test [10] (setting [15]), 90% in [11] (setting [15]), 0% in the test on rice (Oryra sativa) (setting [15]) and 0% in test [12] (setting [15]).
